The values below come from ChEMBL document CHEMBL1909046, “DrugMatrix in vitro pharmacology data”.

One data set deals with Glycine receptor (Rattus norvegicus, UniProt P22771+P24524+P07727+P20781). It is filed as cell membranes, Wistar, Spinal cord, Membrane.
Data set [1] deals with Mitogen-activated protein kinase 3 (Homo sapiens, UniProt P27361). The data set is described as follows: DRUGMATRIX: Protein Serine/Threonine Kinase, ERK1 enzyme inhibition (substrate: Myelin Basic Protein). More on the design: species or system Escherichia coli. To be noted: Not Active = under 50% inhibition at 10 µM.
Data set [2] deals with T1, Amine oxidase [flavin-containing] A (Homo sapiens, UniProt P21397).
T1 sequence (P21397 whole entry): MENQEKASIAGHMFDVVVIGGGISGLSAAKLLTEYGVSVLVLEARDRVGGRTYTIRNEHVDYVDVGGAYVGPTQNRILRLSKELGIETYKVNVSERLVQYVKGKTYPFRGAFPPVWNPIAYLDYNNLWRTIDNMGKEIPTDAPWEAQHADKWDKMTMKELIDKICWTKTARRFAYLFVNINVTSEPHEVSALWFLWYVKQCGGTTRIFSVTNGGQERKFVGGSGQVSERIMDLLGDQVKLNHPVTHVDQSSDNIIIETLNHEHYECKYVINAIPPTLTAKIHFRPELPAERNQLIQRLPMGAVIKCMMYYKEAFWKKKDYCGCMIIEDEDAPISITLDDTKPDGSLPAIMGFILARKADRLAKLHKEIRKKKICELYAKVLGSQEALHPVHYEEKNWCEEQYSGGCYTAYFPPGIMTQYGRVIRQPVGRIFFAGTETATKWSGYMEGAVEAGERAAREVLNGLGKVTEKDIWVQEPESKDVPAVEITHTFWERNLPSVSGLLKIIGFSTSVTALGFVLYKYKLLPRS
Briefly: DRUGMATRIX: Monoamine Oxidase MAO-A enzyme inhibition (substrate: Kynuramine). Also noted: species or system BTI-TN-5B1-4. To be noted: bti-tn-5b1-4; Not Active = under 50% inhibition at 10 µM.

For the next data set, the target named is T2, Cytochrome P450 1A2 (Homo sapiens, UniProt P05177). Also: in other assays of this panel Not Active means under 50% inhibition at 10 µM.
T2 sequence (P05177 whole entry): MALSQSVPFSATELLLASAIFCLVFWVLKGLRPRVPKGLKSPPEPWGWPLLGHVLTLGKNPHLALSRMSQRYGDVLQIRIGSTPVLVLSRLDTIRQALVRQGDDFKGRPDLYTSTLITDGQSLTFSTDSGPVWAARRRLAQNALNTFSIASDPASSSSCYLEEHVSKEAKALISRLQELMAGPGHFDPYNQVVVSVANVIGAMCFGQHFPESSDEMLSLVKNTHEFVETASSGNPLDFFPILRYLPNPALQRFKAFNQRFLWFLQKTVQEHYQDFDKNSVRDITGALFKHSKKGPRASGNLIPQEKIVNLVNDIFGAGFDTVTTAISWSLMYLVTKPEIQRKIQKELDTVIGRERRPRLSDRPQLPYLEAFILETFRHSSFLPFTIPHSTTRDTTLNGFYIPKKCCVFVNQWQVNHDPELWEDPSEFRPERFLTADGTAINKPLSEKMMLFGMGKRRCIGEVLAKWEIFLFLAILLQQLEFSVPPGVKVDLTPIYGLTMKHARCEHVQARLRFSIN
To be noted: bti-tn-5b1-4.

The target in data set [3] is T3, Neuropeptide Y receptor type 1 (Homo sapiens, UniProt P25929). Also: in other assays of this panel Not Active means under 50% inhibition at 10 µM.
T3 sequence (P25929 whole entry): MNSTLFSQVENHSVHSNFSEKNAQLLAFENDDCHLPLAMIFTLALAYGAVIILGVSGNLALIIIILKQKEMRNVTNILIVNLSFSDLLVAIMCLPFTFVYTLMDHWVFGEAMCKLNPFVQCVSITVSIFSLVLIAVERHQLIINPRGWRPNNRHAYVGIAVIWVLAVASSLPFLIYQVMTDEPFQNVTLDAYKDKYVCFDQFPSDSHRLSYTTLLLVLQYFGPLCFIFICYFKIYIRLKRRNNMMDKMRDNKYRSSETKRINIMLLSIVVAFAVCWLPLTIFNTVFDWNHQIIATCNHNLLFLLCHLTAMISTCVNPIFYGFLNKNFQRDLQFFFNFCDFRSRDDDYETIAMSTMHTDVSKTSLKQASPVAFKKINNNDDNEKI
It is filed as cell membranes, Membrane. To be noted: sk-n-mc.

The target in the next data set is T4, Adenosine receptor A1 (Homo sapiens, UniProt P30542).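 Also: radioligand binding assay at the adenosine A1 receptor, with DPCPX serving as the labelled ligand; in other assays of this panel Not Active means under 50% inhibition at 10 µM.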
T4 sequence (P30542 whole entry): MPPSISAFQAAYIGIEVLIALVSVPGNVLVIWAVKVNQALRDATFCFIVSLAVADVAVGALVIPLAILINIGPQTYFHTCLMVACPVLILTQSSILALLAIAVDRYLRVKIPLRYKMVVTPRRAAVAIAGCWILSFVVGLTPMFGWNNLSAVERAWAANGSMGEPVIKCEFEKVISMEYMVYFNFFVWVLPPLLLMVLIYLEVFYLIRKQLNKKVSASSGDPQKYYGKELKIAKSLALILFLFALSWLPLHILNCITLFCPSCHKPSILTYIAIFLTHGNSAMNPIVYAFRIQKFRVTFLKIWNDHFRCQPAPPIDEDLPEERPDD
It is filed as cell membranes, CHO, Membrane.

Data set [4] has as its target T5, Type-2 angiotensin II receptor (Homo sapiens, UniProt P50052). Also: in other assays of this panel Not Active means under 50% inhibition at 10 µM.
T5 sequence (P50052 whole entry): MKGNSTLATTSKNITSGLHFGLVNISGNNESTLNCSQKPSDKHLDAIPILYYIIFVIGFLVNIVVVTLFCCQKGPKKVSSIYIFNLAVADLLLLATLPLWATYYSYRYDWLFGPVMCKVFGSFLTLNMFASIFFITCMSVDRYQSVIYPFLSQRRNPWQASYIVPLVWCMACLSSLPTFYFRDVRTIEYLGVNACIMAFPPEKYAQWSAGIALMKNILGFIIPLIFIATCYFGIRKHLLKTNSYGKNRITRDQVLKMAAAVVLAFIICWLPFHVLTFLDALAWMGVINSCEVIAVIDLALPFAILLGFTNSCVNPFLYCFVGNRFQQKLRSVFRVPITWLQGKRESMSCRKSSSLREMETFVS
Briefly: biochemical. It is filed as cell-based, CHO-K1.

What is called IC50 is the concentration at which inhibition is half-maximal. Usually Ki stands for a dissociation constant, usually derived from enzyme kinetics or from competition with a known ligand.

Chain of Mitogen-activated protein kinase 3 (P27361 whole entry): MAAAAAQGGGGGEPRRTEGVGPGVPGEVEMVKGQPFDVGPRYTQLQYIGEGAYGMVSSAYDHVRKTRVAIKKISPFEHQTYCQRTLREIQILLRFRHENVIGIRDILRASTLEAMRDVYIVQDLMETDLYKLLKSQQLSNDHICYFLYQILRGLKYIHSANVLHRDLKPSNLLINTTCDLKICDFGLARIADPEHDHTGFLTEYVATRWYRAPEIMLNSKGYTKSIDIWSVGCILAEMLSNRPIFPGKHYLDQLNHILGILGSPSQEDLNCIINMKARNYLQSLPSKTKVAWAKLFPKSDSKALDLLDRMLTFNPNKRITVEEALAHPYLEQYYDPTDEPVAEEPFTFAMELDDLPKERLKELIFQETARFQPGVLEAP

Turning to `CCCCC(=O)N(Cc1ccc(-c2ccccc2-c2nnn[nH]2)cc1)[C@H](C(=O)O)C(C)C`, the IC50 entry (at Glycine receptor; in data set [1]; in data set [2]; against Cytochrome P450 1A2; in data set [3]; against Adenosine receptor A1 (cho)) was “Not Active” in each case. In addition, the IC50 entry in data set [4] (cho-k1) is recorded as “Not Active”. Besides, the Ki result at Cytochrome P450 1A2 is recorded as “Not Active”.

Turning to `O=C(O)COc1ccc(C(=O)c2cccs2)c(Cl)c1Cl`, the IC50 entry (against Glycine receptor; in data set [1]; in data set [2]; at Cytochrome P450 1A2; in data set [3]; at Adenosine receptor A1 (cho)) was “Not Active” in each case. The IC50 result in data set [4] (cho-k1) is on record as “Not Active”. Moreover, the inhibition constant (Ki) result on Cytochrome P450 1A2 is given as “Not Active”.

As for `CN1[C@@H]2CC[C@H]1C[C@@H](OC(c1ccccc1)c1ccccc1)C2` [BENZTROPINE], the IC50 result (against Glycine receptor; in data set [1]; in data set [2]; at Cytochrome P450 1A2; in data set [3]; against Adenosine receptor A1 (cho)) was “Not Active” in each case. Also, the IC50 entry in data set [4] (cho-k1) is on record as “Not Active”. Moreover, on Cytochrome P450 1A2, the Ki result is listed as “Not Active”.

Take `C[C@@](Cc1ccc(O)c(O)c1)(NN)C(=O)O.O` [CARBIDOPA]: the IC50 entry (against Glycine receptor; in data set [1]; in data set [2]; against Cytochrome P450 1A2; in data set [3]; at Adenosine receptor A1 (cho)) was “Not Active” each time. For the same compound, the IC50 result in data set [4] (cho-k1) is reported as “Not Active”. Further, the Ki entry on Cytochrome P450 1A2 is listed as “Not Active”.

Take `CN1CCN(C2=Nc3cc(Cl)ccc3Nc3ccccc32)CC1` [CLOZAPINE]: the IC50 entry (on Glycine receptor; in data set [1]; in data set [2]; against Cytochrome P450 1A2; in data set [3]; against Adenosine receptor A1 (cho)) was “Not Active” throughout. For the same compound, in data set [4] (cho-k1), the concentration for half-maximal inhibition (IC50) result is “Not Active”. Besides, the Ki result at Cytochrome P450 1A2 is “Not Active”.

As for `CC(C)NC[C@@H](O)COc1cccc2ccccc12` [DEXPROPRANOLOL], the IC50 entry (at Glycine receptor; in data set [1]; in data set [2]; on Cytochrome P450 1A2; in data set [3]; against Adenosine receptor A1 (cho)) was “Not Active” in each case. In addition, the half-inhibitory concentration (IC50) result in data set [4] (cho-k1) is reported as “Not Active”. Also, on Cytochrome P450 1A2, the Ki result was “Not Active”.

In the case of `CC(C)NC[C@H](O)COc1cccc2ccccc12` [LEVOPROPRANOLOL], the IC50 entry (against Glycine receptor; in data set [1]; in data set [2]; at Cytochrome P450 1A2; in data set [3]; against Adenosine receptor A1 (cho)) was “Not Active” each time. For the same compound, the IC50 result in data set [4] (cho-k1) is reported as “Not Active”. Moreover, the Ki result on Cytochrome P450 1A2 was “Not Active”.

For the compound `O=C(O)CCCCC1CCSS1` (stereo not drawn) [LIPOIC ACID, ALPHA], the IC50 entry (against Glycine receptor; in data set [1]; in data set [2]; at Cytochrome P450 1A2; in data set [3]; at Adenosine receptor A1 (cho)) was “Not Active” in each case. Also, the IC50 result in data set [4] (cho-k1) is given as “Not Active”. The Ki entry at Cytochrome P450 1A2 is listed as “Not Active”.

For the compound `CN(C)C(=O)C(CCN1CCC(O)(c2ccc(Cl)cc2)CC1)(c1ccccc1)c1ccccc1` [LOPERAMIDE], the concentration for half-maximal inhibition (IC50) entry (at Glycine receptor; in data set [1]; in data set [2]; against Cytochrome P450 1A2; in data set [3]; against Adenosine receptor A1 (cho)) was “Not Active” each time. Also, in data set [4] (cho-k1), the IC50 result was “Not Active”. Also, the Ki entry on Cytochrome P450 1A2 was “Not Active”.

For `Clc1ccc(COC(Cn2ccnc2)c2ccc(Cl)cc2Cl)c(Cl)c1` (stereo not given) [MICONAZOLE], the IC50 entry against Glycine receptor was “Not Active”; in data set [1], “Not Active”; in data set [2], “Not Active”; on Cytochrome P450 1A2 it was “Not Active”; in data set [3], “Not Active”; in data set [4] (read-out: IC50), 24 µM. In addition, the Ki result at Cytochrome P450 1A2 was “Not Active”; in data set [4] (read-out: Ki) it was 7.78 µM.

Take `Oc1ccc2c3c1O[C@H]1[C@@H](O)CC[C@@]4(O)[C@@H](C2)N(CC2CCC2)CC[C@]314` [NALBUPHINE]: the IC50 entry (against Glycine receptor; in data set [1]; in data set [2]; in data set [3]; on Adenosine receptor A1 (cho); in data set [4] (cho-k1)) was “Not Active” in each case.

As for `C[C@]12C=CC(=O)C=C1CC[C@@H]1[C@@H]2C(=O)C[C@@]2(C)[C@H]1CC[C@]2(O)C(=O)CO` [PREDNISONE], the IC50 result (against Glycine receptor; in data set [1]; in data set [2]; in data set [3]; on Adenosine receptor A1 (cho); in data set [4] (cho-k1)) was “Not Active” in each case.

In the case of `OCCOCCN1CCN(C2=Nc3ccccc3Sc3ccccc32)CC1` [QUETIAPINE], the IC50 entry (at Glycine receptor; in data set [1]; in data set [2]; against Cytochrome P450 1A2; in data set [3]; at Adenosine receptor A1 (cho)) was “Not Active” in each case. In data set [4] (cho-k1), the IC50 result is “Not Active”. Also, the Ki result on Cytochrome P450 1A2 was “Not Active”.

Turning to `C[S+]([O-])c1ccc(-c2nc(-c3ccncc3)c(-c3ccc(F)cc3)[nH]2)cc1` (stereo not given) [SB-203580], the IC50 entry was “Not Active” at Glycine receptor; “Not Active” in data set [2]; “Not Active” in data set [3]; 2.95 µM at Adenosine receptor A1 (read-out: IC50); “Not Active” in data set [4] (cho-k1). Also, the Ki at Adenosine receptor A1 (read-out: Ki) was 1.72 µM.

In the case of `O=C1C[C@@H]2OCC=C3CN4CC[C@]56c7ccccc7N1[C@H]5[C@H]2[C@H]3C[C@H]46` [STRYCHNINE], the IC50 result (in data set [1]; in data set [2]; against Cytochrome P450 1A2; in data set [3]; against Adenosine receptor A1 (cho); in data set [4] (cho-k1)) was “Not Active” throughout. Moreover, at Cytochrome P450 1A2, the Ki result is on record as “Not Active”.

Regarding `CCCCCCCCNC(C)C(O)c1ccc(SC(C)C)cc1` (stereo not given) [SULOCTIDIL], the IC50 entry (against Glycine receptor; in data set [1]; in data set [2]; in data set [3]; at Adenosine receptor A1 (cho); in data set [4] (cho-k1)) was “Not Active” throughout.

As for `CN1CCN(CCCN2c3ccccc3Sc3ccc(C(F)(F)F)cc32)CC1` [TRIFLUOPERAZINE], the IC50 result (at Glycine receptor; in data set [1]; in data set [2]; in data set [3]; at Adenosine receptor A1 (cho); in data set [4] (cho-k1)) was “Not Active” in each case.
